Test results as given in PMC12888861, “Antibacterial activity of enmetazobactam against Acinetobacter spp.: a molecular dissection of mechanism of action and resistance determinants” (Antimicrobial Agents and Chemotherapy, 2025).

Tested on: carbapenem-resistant A. baumannii (CRAB) isolates (n = 67)
Experiment: MIC, broth microdilution (EUCAST), carbapenem-resistant A. baumannii isolates
Format: cell-based, Acinetobacter baumannii
Conditions: for MIC: Acinetobacter baumannii
Method in brief: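 Broth microdilution per EUCAST v.15 guidelines on clinical Acinetobacter isolates from a Spanish 2020 multicenter collection; enmetazobactam also tested alone. A. baumannii ATCC 19606 served as reference strain, in duplicate assays.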

[1] = CHDLs-producing A. baumannii isolates (n = 67), durlobactam series, DUR fixed 4 mg/L in combinations

CC1(C)[C@H](C(=O)O)N2C(=O)C[C@H]2S1(=O)=O [sulbactam]
MIC (isolate Ab56, ST 1, ADC-75, OXA-69, OXA-23, ETZ fixed 8 mg/L in combinations): 8 mg/L | MIC (isolate Ab83, ST 25, ADC-5, OXA-64, OXA-23, DUR fixed at 4 mg/L in combinations): 32 mg/L | MIC (isolate Ab83, ST 25, ADC-5, OXA-64, OXA-23, ETZ fixed 8 mg/L in combinations): 32 mg/L | MIC (isolate Ab109, ST 1, ADC-75, OXA-69, OXA-23, DUR fixed at 4 mg/L in combinations): 16 mg/L | MIC (isolate Ab109, ST 1, ADC-75, OXA-69, OXA-23, ETZ fixed 8 mg/L in combinations): 16 mg/L | MIC (isolate Ab133, ST 2, ADC-30, OXA-66, OXA-58, TEM-12, DUR fixed at 4 mg/L in combinations): 32 mg/L | MIC (isolate Ab133, ST 2, ADC-30, OXA-66, OXA-58, TEM-12, ETZ fixed 8 mg/L in combinations): 32 mg/L | MIC (isolate Ab134, ST 2, ADC-30, OXA-66, OXA-58, TEM-12, DUR fixed at 4 mg/L in combinations): 32 mg/L | MIC (isolate Ab134, ST 2, ADC-30, OXA-66, OXA-58, TEM-12, ETZ fixed 8 mg/L in combinations): 32 mg/L | MIC (isolate Ab137, ST 85, ADC-2, OXA-94, OXA-23, DUR fixed at 4 mg/L in combinations): 16 mg/L | MIC (isolate Ab137, ST 85, ADC-2, OXA-94, OXA-23, ETZ fixed 8 mg/L in combinations): 16 mg/L | MIC (isolate Ab138, ST 745, ADC-30, OXA-66, OXA-58, DUR fixed at 4 mg/L in combinations): 4 mg/L | MIC (isolate Ab138, ST 745, ADC-30, OXA-66, OXA-58, ETZ fixed 8 mg/L in combinations): 8 mg/L | MIC (isolate Ab140, ST 85, ADC-2, OXA-94, OXA-23, DUR fixed at 4 mg/L in combinations): 16 mg/L | MIC (isolate Ab140, ST 85, ADC-2, OXA-94, OXA-23, ETZ fixed 8 mg/L in combinations): 16 mg/L | MIC (isolate Ab141, ST 745, ADC-30, OXA-66, OXA-58, DUR fixed at 4 mg/L in combinations): 8 mg/L | MIC (isolate Ab141, ST 745, ADC-30, OXA-66, OXA-58, ETZ fixed 8 mg/L in combinations): 8 mg/L | MIC (isolate Ab144, ST 745, ADC-30, OXA-66, OXA-58, DUR fixed at 4 mg/L in combinations): 8 mg/L | MIC (isolate Ab144, ST 745, ADC-30, OXA-66, OXA-58, ETZ fixed 8 mg/L in combinations): 8 mg/L | MIC (isolate Ab169, ST 2, ADC-30, OXA-66, OXA-23, DUR fixed at 4 mg/L in combinations): 16 mg/L | MIC (isolate Ab169, ST 2, ADC-30, OXA-66, OXA-23, ETZ fixed 8 mg/L in combinations): 16 mg/L | MIC (isolate Ab171, ST 2, ADC-30, OXA-66, OXA-23, DUR fixed at 4 mg/L in combinations): 16 mg/L | MIC (isolate Ab171, ST 2, ADC-30, OXA-66, OXA-23, ETZ fixed 8 mg/L in combinations): 16 mg/L | MIC (isolate Ab173, ST 2, ISAba1-ADC-30, OXA-66, OXA-23, DUR fixed at 4 mg/L in combinations): 32 mg/L | MIC (isolate Ab173, ST 2, ISAba1-ADC-30, OXA-66, OXA-23, ETZ fixed 8 mg/L in combinations): 32 mg/L | MIC (isolate Ab174, ST 2, ADC-30, OXA-66, OXA-23, DUR fixed at 4 mg/L in combinations): 16 mg/L | MIC (isolate Ab174, ST 2, ADC-30, OXA-66, OXA-23, ETZ fixed 8 mg/L in combinations): 16 mg/L | MIC (isolate Ab179, ST 2, ADC-30, OXA-66, OXA-23, DUR fixed at 4 mg/L in combinations): 16 mg/L | MIC (isolate Ab179, ST 2, ADC-30, OXA-66, OXA-23, ETZ fixed 8 mg/L in combinations): 16 mg/L | MIC (isolate Ab180, ST 2, ADC-30, OXA-66, OXA-24/40, DUR fixed at 4 mg/L in combinations): 4 mg/L | MIC (isolate Ab180, ST 2, ADC-30, OXA-66, OXA-24/40, ETZ fixed 8 mg/L in combinations): 4 mg/L | MIC (isolate Ab181, ST 2, ADC-30, OXA-66, OXA-23, DUR fixed at 4 mg/L in combinations): 16 mg/L | MIC (isolate Ab181, ST 2, ADC-30, OXA-66, OXA-23, ETZ fixed 8 mg/L in combinations): 16 mg/L | MIC (isolate Ab182, ST 2, ADC-30, OXA-66, OXA-23, DUR fixed at 4 mg/L in combinations): 8 mg/L | MIC (isolate Ab182, ST 2, ADC-30, OXA-66, OXA-23, ETZ fixed 8 mg/L in combinations): 8 mg/L | MIC (isolate Ab183, ST 2, ADC-30, OXA-66, OXA-23, DUR fixed at 4 mg/L in combinations): 8 mg/L | MIC (isolate Ab183, ST 2, ADC-30, OXA-66, OXA-23, ETZ fixed 8 mg/L in combinations): 8 mg/L | MIC (isolate Ab184, ST 2, ADC-30, OXA-66, OXA-23, DUR fixed at 4 mg/L in combinations): 16 mg/L | MIC (isolate Ab184, ST 2, ADC-30, OXA-66, OXA-23, ETZ fixed 8 mg/L in combinations): 16 mg/L | MIC (isolate Ab186, ST 2, ADC-30, OXA-66, OXA-23, DUR fixed at 4 mg/L in combinations): 16 mg/L | MIC (isolate Ab186, ST 2, ADC-30, OXA-66, OXA-23, ETZ fixed 8 mg/L in combinations): 16 mg/L | MIC (isolate Ab191, ST 2, ADC-30, OXA-66, OXA-23, DUR fixed at 4 mg/L in combinations): 16 mg/L | MIC (isolate Ab191, ST 2, ADC-30, OXA-66, OXA-23, ETZ fixed 8 mg/L in combinations): 16 mg/L | MIC (isolate Ab192, ST 2, ADC-30, OXA-66, OXA-23, DUR fixed at 4 mg/L in combinations): 16 mg/L | MIC (isolate Ab192, ST 2, ADC-30, OXA-66, OXA-23, ETZ fixed 8 mg/L in combinations): 16 mg/L | MIC (isolate Ab194, ST 2, ADC-30, OXA-66, OXA-23, DUR fixed at 4 mg/L in combinations): 16 mg/L | MIC (isolate Ab194, ST 2, ADC-30, OXA-66, OXA-23, ETZ fixed 8 mg/L in combinations): 16 mg/L | MIC (isolate Ab199, ST 2, ADC-30, OXA-66, OXA-23, DUR fixed at 4 mg/L in combinations): 16 mg/L | MIC (isolate Ab199, ST 2, ADC-30, OXA-66, OXA-23, ETZ fixed 8 mg/L in combinations): 16 mg/L | MIC (isolate Ab201, ST 2, ADC-30, OXA-66, OXA-23, DUR fixed at 4 mg/L in combinations): 16 mg/L | MIC (isolate Ab201, ST 2, ADC-30, OXA-66, OXA-23, ETZ fixed 8 mg/L in combinations): 16 mg/L | MIC (isolate Ab204, ST 2, ADC-30, OXA-66, OXA-23, DUR fixed at 4 mg/L in combinations): 16 mg/L | MIC (isolate Ab204, ST 2, ADC-30, OXA-66, OXA-23, ETZ fixed 8 mg/L in combinations): 8 mg/L | MIC50 [1]: 16 mg/L | MIC90 [1]: 32 mg/L | MIC distribution 0.12 (cumulative % of CHDLs-producing A. baumannii isolates (n = 67) at MIC 0.12 mg/L, DUR fixed 4 mg/L in combinations): 0.0% | MIC distribution 0.25 (cumulative % of CHDLs-producing A. baumannii isolates (n = 67) at MIC 0.25 mg/L, DUR fixed 4 mg/L in combinations): 0.0% | MIC distribution 0.5 (cumulative % of CHDLs-producing A. baumannii isolates (n = 67) at MIC 0.5 mg/L, DUR fixed 4 mg/L in combinations): 0.0% | MIC distribution 1 (cumulative % of CHDLs-producing A. baumannii isolates (n = 67) at MIC 1 mg/L, DUR fixed 4 mg/L in combinations): 0.0% | MIC distribution 2 (cumulative % of CHDLs-producing A. baumannii isolates (n = 67) at MIC 2 mg/L, DUR fixed 4 mg/L in combinations): 13.4% | MIC distribution 4 (cumulative % of CHDLs-producing A. baumannii isolates (n = 67) at MIC 4 mg/L, DUR fixed 4 mg/L in combinations): 20.9% | MIC distribution 8 (cumulative % of CHDLs-producing A. baumannii isolates (n = 67) at MIC 8 mg/L, DUR fixed 4 mg/L in combinations): 34.3% | MIC distribution 16 (cumulative % of CHDLs-producing A. baumannii isolates (n = 67) at MIC 16 mg/L, DUR fixed 4 mg/L in combinations): 89.6% | MIC distribution 32 (cumulative % of CHDLs-producing A. baumannii isolates (n = 67) at MIC 32 mg/L, DUR fixed 4 mg/L in combinations): 100% | MIC distribution 0.12 (cumulative share of CRAB isolates (n = 67) at MIC 0.12 mg/L, ETZ fixed 8 mg/L in combinations): 0 | MIC distribution 0.25 (cumulative share of CRAB isolates (n = 67) at MIC 0.25 mg/L, ETZ fixed 8 mg/L in combinations): 0 | MIC distribution 0.5 (cumulative share of CRAB isolates (n = 67) at MIC 0.5 mg/L, ETZ fixed 8 mg/L in combinations): 0 | MIC distribution 1 (cumulative share of CRAB isolates (n = 67) at MIC 1 mg/L, ETZ fixed 8 mg/L in combinations): 0 | MIC distribution 2 (cumulative share of CRAB isolates (n = 67) at MIC 2 mg/L, ETZ fixed 8 mg/L in combinations): 14.9 | MIC distribution 4 (cumulative share of CRAB isolates (n = 67) at MIC 4 mg/L, ETZ fixed 8 mg/L in combinations): 17.9 | MIC distribution 8 (cumulative share of CRAB isolates (n = 67) at MIC 8 mg/L, ETZ fixed 8 mg/L in combinations): 34.3 | MIC distribution 16 (cumulative share of CRAB isolates (n = 67) at MIC 16 mg/L, ETZ fixed 8 mg/L in combinations): 89.6 | MIC distribution 32 (cumulative share of CRAB isolates (n = 67) at MIC 32 mg/L, ETZ fixed 8 mg/L in combinations): 100 | MIC distribution 64 (cumulative share of CRAB isolates (n = 67) at MIC 64 mg/L, ETZ fixed 8 mg/L in combinations): 100
